In publication PMC4457528, “Identification of Novel Small Molecule Inhibitors of Oncogenic RET Kinase” (PLoS ONE, 2015):
Like-named read-outs stand apart in the source and are kept apart here.

How the values were obtained:
Experiment in all cases: KinomeScan kinase panel, single concentration 10 µM
Format in all cases: binding
KinomeScan kinase panel [1] = target: T1, KinomeScan kinase panel (Homo sapiens, UniProt O15264); settings: p38-delta, 10 µM; read-out: score (%)
T1 construct: purchased DiscoveRx (KinomeScan)
T1 sequence (O15264 1-365): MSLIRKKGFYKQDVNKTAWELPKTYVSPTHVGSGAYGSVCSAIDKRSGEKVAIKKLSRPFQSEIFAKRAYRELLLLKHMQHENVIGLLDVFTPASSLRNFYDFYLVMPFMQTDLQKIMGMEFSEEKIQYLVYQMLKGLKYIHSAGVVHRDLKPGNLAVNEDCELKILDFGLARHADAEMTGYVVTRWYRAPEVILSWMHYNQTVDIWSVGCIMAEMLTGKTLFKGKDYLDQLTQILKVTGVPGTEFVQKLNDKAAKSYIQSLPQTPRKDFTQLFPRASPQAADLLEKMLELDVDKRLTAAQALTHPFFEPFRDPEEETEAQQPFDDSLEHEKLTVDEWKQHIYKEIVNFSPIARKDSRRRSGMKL

KinomeScan kinase panel [2] = target: T2, KinomeScan kinase panel (Homo sapiens, UniProt P00533, DEL752-759)
T2 construct: purchased DiscoveRx (KinomeScan)

KinomeScan kinase panel [3] = target: T3, KinomeScan kinase panel (Homo sapiens, UniProt P31751); settings: AKT2, 10 µM; read-out: score (%)
T3 construct: purchased DiscoveRx (KinomeScan)

KinomeScan kinase panel [4] = target: T4, KinomeScan kinase panel (Homo sapiens, UniProt P36888, K663Q); settings: FLT3(K663Q), 10 µM; read-out: score (%)
T4 construct: purchased DiscoveRx (KinomeScan)
T4 sequence (P36888 27-993 K663Q): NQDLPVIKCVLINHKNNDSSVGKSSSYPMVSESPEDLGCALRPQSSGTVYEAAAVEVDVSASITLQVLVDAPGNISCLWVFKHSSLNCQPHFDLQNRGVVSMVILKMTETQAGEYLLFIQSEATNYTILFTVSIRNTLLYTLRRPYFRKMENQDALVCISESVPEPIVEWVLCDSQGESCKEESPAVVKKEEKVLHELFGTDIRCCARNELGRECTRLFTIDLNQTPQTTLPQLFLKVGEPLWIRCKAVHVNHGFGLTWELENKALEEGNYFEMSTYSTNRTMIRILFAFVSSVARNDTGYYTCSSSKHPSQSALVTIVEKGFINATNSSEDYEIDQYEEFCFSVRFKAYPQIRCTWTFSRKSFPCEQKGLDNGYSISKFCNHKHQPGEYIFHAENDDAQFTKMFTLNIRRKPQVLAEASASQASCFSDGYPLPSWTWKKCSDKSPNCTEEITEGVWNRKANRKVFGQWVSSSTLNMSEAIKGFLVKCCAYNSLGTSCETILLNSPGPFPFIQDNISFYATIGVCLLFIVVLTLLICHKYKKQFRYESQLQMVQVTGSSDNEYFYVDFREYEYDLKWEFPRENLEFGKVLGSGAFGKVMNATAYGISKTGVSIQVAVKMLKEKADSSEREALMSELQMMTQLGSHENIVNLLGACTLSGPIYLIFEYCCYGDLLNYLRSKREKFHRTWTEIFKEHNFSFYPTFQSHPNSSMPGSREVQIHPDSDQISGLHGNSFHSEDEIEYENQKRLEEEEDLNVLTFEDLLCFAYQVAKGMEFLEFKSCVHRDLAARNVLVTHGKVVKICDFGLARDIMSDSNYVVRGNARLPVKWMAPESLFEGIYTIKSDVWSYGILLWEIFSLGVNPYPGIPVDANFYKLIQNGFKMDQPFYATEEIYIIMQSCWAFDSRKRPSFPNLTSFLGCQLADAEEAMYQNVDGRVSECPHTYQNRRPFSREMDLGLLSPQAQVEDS

KinomeScan kinase panel [5] = target: T5, KinomeScan kinase panel (Homo sapiens, UniProt Q59H18); settings: 10 µM, read-out: score (%)
T5 construct: purchased DiscoveRx (KinomeScan)
T5 sequence (Q59H18 1-835): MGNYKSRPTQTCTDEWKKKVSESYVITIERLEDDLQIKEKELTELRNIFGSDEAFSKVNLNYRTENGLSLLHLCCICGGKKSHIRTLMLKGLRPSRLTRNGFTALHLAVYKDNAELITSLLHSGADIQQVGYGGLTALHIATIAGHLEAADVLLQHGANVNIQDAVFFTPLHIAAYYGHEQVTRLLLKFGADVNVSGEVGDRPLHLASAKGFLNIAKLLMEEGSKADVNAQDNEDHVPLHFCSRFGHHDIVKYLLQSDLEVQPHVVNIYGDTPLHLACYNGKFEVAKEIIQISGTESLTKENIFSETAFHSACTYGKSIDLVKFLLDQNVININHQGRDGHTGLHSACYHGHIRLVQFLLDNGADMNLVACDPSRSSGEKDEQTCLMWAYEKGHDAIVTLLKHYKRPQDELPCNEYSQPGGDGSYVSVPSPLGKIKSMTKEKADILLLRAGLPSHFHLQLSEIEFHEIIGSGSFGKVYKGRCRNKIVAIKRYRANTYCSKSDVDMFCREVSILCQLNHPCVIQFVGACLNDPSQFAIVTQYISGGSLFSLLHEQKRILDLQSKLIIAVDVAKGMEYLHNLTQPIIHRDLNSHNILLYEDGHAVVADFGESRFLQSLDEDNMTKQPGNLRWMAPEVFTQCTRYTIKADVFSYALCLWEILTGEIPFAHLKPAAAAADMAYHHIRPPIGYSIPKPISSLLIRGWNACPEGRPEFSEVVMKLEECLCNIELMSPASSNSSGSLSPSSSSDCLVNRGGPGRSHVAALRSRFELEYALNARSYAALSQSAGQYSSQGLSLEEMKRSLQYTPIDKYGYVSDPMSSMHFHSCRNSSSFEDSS

KinomeScan kinase panel [6] = target: T6, KinomeScan kinase panel (Homo sapiens, UniProt Q99640); settings: PKMYT1, 10 µM
T6 construct: purchased DiscoveRx (KinomeScan)
T6 sequence (Q99640 1-499): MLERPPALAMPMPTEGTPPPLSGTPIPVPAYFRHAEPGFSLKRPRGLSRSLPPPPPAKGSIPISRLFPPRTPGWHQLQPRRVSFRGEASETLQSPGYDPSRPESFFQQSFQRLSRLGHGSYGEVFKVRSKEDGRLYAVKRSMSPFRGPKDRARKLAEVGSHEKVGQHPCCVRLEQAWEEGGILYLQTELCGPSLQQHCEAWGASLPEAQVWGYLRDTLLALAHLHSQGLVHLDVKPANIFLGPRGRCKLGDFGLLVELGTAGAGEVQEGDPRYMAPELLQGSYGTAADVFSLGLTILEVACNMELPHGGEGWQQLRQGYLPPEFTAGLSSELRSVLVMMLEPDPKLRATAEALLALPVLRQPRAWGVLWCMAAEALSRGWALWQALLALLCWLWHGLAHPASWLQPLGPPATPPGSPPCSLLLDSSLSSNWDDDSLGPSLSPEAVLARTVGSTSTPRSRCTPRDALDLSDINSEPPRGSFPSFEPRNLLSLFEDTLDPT

KinomeScan kinase panel [7] = target: T7, KinomeScan kinase panel (Homo sapiens, UniProt Q9BUB5); settings: MKNK1, 10 µM; read-out: score (%)
T7 construct: purchased DiscoveRx (KinomeScan)
T7 sequence (Q9BUB5 whole entry): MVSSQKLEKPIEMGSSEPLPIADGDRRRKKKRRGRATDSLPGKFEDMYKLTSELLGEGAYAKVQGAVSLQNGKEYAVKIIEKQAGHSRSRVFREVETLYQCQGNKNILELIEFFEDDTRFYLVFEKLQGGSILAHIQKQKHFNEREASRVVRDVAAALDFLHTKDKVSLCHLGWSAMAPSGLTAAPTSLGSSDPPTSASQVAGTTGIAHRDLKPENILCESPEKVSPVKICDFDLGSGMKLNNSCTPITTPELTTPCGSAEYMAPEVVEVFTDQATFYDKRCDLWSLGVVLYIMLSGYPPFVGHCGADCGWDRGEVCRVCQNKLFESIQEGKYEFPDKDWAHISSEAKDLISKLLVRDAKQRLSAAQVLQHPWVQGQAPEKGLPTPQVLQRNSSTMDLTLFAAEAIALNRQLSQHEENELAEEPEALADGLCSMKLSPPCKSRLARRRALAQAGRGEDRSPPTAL

T2 sequence (P00533 with tags, fused parts or gaps DEL752-759): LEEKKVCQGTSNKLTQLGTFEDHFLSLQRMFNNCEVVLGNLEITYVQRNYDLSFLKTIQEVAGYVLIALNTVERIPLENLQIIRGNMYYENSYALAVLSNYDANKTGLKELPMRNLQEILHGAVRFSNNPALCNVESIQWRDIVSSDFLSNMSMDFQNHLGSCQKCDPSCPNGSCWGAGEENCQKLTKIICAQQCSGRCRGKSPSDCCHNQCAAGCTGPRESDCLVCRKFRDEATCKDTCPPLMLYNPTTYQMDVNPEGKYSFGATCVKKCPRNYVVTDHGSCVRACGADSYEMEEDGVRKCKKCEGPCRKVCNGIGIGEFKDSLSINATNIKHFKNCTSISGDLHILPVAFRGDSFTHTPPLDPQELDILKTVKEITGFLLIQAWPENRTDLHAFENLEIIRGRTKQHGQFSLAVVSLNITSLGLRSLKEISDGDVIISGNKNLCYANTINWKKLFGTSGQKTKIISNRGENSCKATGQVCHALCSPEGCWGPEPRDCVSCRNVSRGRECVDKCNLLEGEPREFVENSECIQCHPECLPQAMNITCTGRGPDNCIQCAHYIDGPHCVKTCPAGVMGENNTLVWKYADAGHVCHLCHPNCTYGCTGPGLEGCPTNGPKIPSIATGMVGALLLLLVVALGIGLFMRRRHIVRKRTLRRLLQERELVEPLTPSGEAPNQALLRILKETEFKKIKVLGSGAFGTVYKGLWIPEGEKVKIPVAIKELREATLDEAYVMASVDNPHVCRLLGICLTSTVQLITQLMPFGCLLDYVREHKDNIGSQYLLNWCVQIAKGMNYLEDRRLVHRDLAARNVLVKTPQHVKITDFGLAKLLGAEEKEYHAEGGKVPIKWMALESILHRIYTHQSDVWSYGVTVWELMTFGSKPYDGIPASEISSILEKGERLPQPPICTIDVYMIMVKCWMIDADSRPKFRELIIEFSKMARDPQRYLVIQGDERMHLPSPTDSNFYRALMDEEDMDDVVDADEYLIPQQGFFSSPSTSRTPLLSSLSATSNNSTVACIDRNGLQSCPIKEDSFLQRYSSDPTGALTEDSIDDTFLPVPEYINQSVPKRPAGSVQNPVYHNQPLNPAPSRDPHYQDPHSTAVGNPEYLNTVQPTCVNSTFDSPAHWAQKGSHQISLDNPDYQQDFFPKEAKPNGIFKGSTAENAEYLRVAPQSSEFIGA
T3 sequence (P31751 whole entry): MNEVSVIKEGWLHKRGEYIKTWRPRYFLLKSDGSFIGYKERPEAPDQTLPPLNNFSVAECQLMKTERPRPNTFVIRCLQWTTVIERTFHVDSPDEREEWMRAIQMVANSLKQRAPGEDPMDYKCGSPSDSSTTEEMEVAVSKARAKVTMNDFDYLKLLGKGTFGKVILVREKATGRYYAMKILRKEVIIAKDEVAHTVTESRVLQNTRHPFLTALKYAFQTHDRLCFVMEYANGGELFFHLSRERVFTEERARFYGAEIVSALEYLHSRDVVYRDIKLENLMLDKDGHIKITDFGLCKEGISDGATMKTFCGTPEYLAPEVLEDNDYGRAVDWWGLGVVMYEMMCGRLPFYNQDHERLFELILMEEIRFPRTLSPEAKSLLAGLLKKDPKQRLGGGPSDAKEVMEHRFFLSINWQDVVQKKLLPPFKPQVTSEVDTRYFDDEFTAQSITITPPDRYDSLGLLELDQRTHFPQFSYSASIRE

For `CCN1CCN(Cc2ccc(NC(=O)c3ccc(C)c(NC(=O)c4cncc(-c5cccs5)c4)c3)cc2C(F)(F)F)CC1` [ALW-II-41-27], the remaining binding at 10 µM (KinomeScan kinase panel [1]) was 29%, the “score (%)” value (KinomeScan kinase panel [2]) was 3% and the remaining binding at 10 µM (KinomeScan kinase panel [3]) was greater than 30%. The remaining binding at 10 µM (KinomeScan kinase panel [4]) was 1%, the remaining binding at 10 µM (KinomeScan kinase panel [5]; kinase TNNI3K) was 3.8% and the “score (%)” value (KinomeScan kinase panel [6]) was “nb (Hits values higher than 30% were considered negative (no binding: nb))”. For the same molecule, the remaining binding at 10 µM (KinomeScan kinase panel [7]) was 14%.
In the case of `CCN1CCN(Cc2ccc(NC(=O)c3ccc(C)c(C#Cc4cccnc4)c3)cc2C(F)(F)F)CC1` [XMD15-44], the remaining binding at 10 µM (KinomeScan kinase panel [1]) is reported as 2.5%, the “score (%)” value (KinomeScan kinase panel [2]; EGFR(S752-I759del), 10 µM) is reported as 0.9% and the remaining binding at 10 µM (KinomeScan kinase panel [3]) is reported as 30%. For the same molecule, the remaining binding at 10 µM (KinomeScan kinase panel [4]) was 0%, the remaining binding at 10 µM (KinomeScan kinase panel [5]; kinase TNNI3K) was 0% and the “score (%)” value (KinomeScan kinase panel [6]) was 85%. The remaining binding at 10 µM (KinomeScan kinase panel [7]) was 0.25%.
With `CCN1CCN(Cc2ccc(NC(=O)c3ccc(C)c(/C=C/c4cnc5[nH]ccc5c4Cl)c3)cc2C(F)(F)F)CC1` [HG-6-63-01, (E)-3-(2-(4-chloro-1H-pyrrolo[2,3-b]pyridin-5-yl)vinyl)-N-(4-((4-ethylpiperazin-1-yl)methyl)-3-(trifluoromethyl)phenyl)-4-methylbenzamide] the remaining binding at 10 µM (KinomeScan kinase panel [1]) was greater than 30%, the “score (%)” value (KinomeScan kinase panel [2]; EGFR(S752-I759del), 10 µM) was 0% and the remaining binding at 10 µM (KinomeScan kinase panel [3]) was greater than 30%. The remaining binding at 10 µM (KinomeScan kinase panel [4]) was 0%, the remaining binding at 10 µM (KinomeScan kinase panel [5]; TNNI3K) was 0.9% and the “score (%)” value (KinomeScan kinase panel [6]) was “nb (Hits values higher than 30% were considered negative (no binding: nb))”. The remaining binding at 10 µM (KinomeScan kinase panel [7]) was greater than 30%.
